Values joined by “and” are separate entries in the source; they are usually repeats but may differ in a detail not shown here. Equal values may be shown once. Read-outs that look alike come from different tables or passages of the source.
Experiments:
myocardial ischemia = test: imaging agent 1 and ^82Rb PET versus ^99mTc sestamibi SPECT, perfusion defect assessment (phase II); format: in vivo, human
Protocol: Twenty-six patients (20 men) who underwent ^99mTc sestamibi SPECT and imaging agent 1 PET within 6 months at a single center in a phase II clinical trial were compared to 23 patients (matched by summed difference score (SDS) on SPECT) who underwent ^99mTc sestamibi SPECT and ^82Rb PET (25-50 mCi) within 6 months without change in clinical state. PET was performed with imaging agent 1 at rest (2.3-3.9 mCi) followed 60 min or 24 h later with exercise or adenosine stress (7.3-8.6 mCi). Perfusion defects on SPECT and PET were assessed by computer-assisted visual interpretation, using the standard 17 segment, 5 point-scoring model (0=normal; 4=absent uptake). The extent and severity of ischemia (SDS) was derived from the difference between summed stress score (SSS) and summed rest scores (SRS).
Twenty six patients (20 men) underwent SPECT and PET within 6-months. PET was performed with imaging agent 1 at rest (2.3-3.9 mCi) followed 60 min (n=18) or 24 h (n=8) later with exercise (n=16) or adenosine (n=10) stress (7.3-8.6 mCi). Image quality of SPECT and PET was consensually assessed by 2 independent blinded readers and graded as excellent, good, or fair. Stress and rest perfusion defects on SPECT and PET were assessed by the same readers by computer-assisted visual interpretation, using the standard 17 segment, 5 point-scoring model (0=normal; 4=absent uptake). The extent and severity of ischemia (summed difference score (SDS)) was derived from the difference between summed stress (SSS) and summed rest scores (SRS). Image quality with PET was excellent in 24 and good in 2 patients. In contrast, there were 7 excellent, 18 good, and 1 fair quality study, p<0.001 by SPECT. In 14 patients with abnormal SPECT (SSS≥4), mean SDS was greater with PET than with SPECT (9.6±1.8 vs. 5.4±0.7, p=0.02). In all 12 patients with normal SPECT (SSS<4), SDS was zero by PET and SPECT.

[1] = early elimination of ^18F in urine; format: in vivo, human
Protocol: Urine collected pre-dose (Baseline), and all voids up to 8 hours post-dose were collected and assayed for ^18F. However, as in blood collection, the urine collection terminated near the 7-hour minimum specified in the protocol. Mean urinary excretion over the approximate 7-hour void interval was 4.83% ID with a % CV of 64.7 and a range of 0.64% ID to 12.41% ID. This finding is in reasonable agreement with cumulative urine excretion of 5% as measured with PET imaging.

healthy adults = test: clinical safety evaluation after single dose at rest; format: in vivo, human; conditions: 13 healthy adults
Protocol: This was a non-randomized, open-label, single-dose study. A total of 13 healthy adult subjects were enrolled and administered a single dose of imaging agent 1 at a single study center in the United States. Subjects were screened within 14 days prior to enrollment to confirm subject eligibility, and began baseline assessments at the study center the day before study drug administration. Subjects remained at the study center until completion of the Study Day 2 safety assessments (24±8 hours post-dose). A telephone call was made to study subjects 48±8 hours post-dose for adverse event (AE) monitoring. All subjects returned to the study center approximately one week (5-7 days) post-dose for a follow-up safety visit, and were contacted by telephone approximately 14-17 days post-dose for final serious AE monitoring.

[2] = tested on: stress induced myocardial perfusion abnormalities; test: rest-stress imaging agent 1 PET versus Tc-99m Sestamibi SPECT MPI, single center; format: in vivo, human; conditions: myocardial segments supplied by diseased coronary arteries, 13 patients
Protocol: Thirteen patients, from a single center, underwent rest-stress Tc-99m Sestamibi SPECT MPI, rest-stress imaging agent 1 PET MPI and coronary angiography. In each patient, 17 myocardial segments were visually scored for rest and stress images by independent observers who were blinded to all other results. For each patient, summed stress scores (SSS), summed rest scores (SRS), and summed difference scores (SDS) were determined from segmental scores. Percent narrowing in each coronary artery was evaluated blindly and 70% luminal diameter narrowing was considered significant.

[3] = tested on: coronary artery disease (CAD); test: Phase 2 diagnostic performance for coronary artery disease, PET versus SPECT; format: in vivo, human
Description: 143 patients (Pts) from 21 centers, presenting with a broad spectrum of CAD pre-test likelihoods, underwent rest-stress Tc-99m labeled SPECT MPI and imaging agent 1 PET MPI. […] Their mean age was 64.5 (range: 36-85) years and 68 were males. % narrowing in each coronary artery was quantified blindly. 52/84 Pts had significant CAD (≥50% luminal diameter narrowing) and 32/84 had insignificant CAD/normal coronary arteries. In each patient, 17 myocardial segments were visually scored on rest and stress images by 3 independent, blinded readers and majority rule interpretation was determined in each patient for both PET and SPECT studies. Diagnostic performance of PET was compared to that of SPECT using ROC analysis.

[4] = syringe component adsorption of imaging agent 1; format: physicochemical; conditions: B&D syringe, three hours
Protocol: To further identify the contact surface material that contributed to syringe retention of imaging agent 1, three additional B&D syringes were each filled with a 1 mL solution of imaging agent 1 then maintained at ambient temperature and humidity for a period of three hours. Following transfer of the individual doses as described in Example 1, the syringe barrel and butyl rubber tip plunger were then separated, measured for retained radioactivity and decay corrected. The difference in percent retained activity is statistically significant at the 95% confidence level (i.e. Prob>|t| 0.0017).

myocardial blood flow [5] = conditions: humans, assumed, equivalent to prior studies; cited from earlier work
normal rats and dogs = conditions: cited from earlier work
myocardial blood flow [6] = conditions: humans, assumed, equivalent to pre-clinical studies; cited from earlier work

SMILES: CC(C)(C)n1ncc(OCc2ccc(COCC[18F])cc2)c(Cl)c1=O [imaging agent 1, 2-t-butyl-4-chloro-5-[4-(2-(^18F)fluoroethoxymethyl)-benzyloxy]-2H-pyridazin-3-1]
- SDS (myocardial ischemia; 12 patients with normal SPECT (SSS<4)): zero
- mean SDS (summed difference score) (myocardial ischemia; 14 patients with abnormal SPECT (SSS≥4)): 9.6±1.8
- image quality excellent, number of patients (myocardial ischemia; 26 patients, 2 blinded readers): 24
- image quality good, number of patients (myocardial ischemia; 26 patients, 2 blinded readers): 2
- differences in SDS, PET compared to SPECT (myocardial ischemia; patients with normal SPECT (SSS<4)): no differences
- Mean urinary excretion ([1]; approximate 7-hour void interval): 4.83 % ID
- cumulative urine excretion as measured with PET imaging ([1]; in vivo): 5%
- changes from baseline in vital signs, laboratory values, ECGs and EEGs (healthy adults): not clinically significant
- potential cardiotoxicity (coagulation studies, Troponin-T levels) (healthy adults): not exhibited
- tolerability (healthy adults): well-tolerated and no clinically significant safety concerns were raised
- SDS [2]: 12.3 ± 7
- SRS [2]: 3.8 ± 6.6
- SSS [2]: 16.1 ± 7.8
- Diagnostic certainty of interpretation (% of cases with definitely abnormal/normal interpretation) ([3]; in vivo): 92.0%
- area under the ROC curve for overall diagnosis of CAD ([3]; in vivo): 0.79±0.05
- % of images rated as either excellent or good ([3]; rest images): 96.8%
- % of images rated as either excellent or good ([3]; stress images): 99.2%
- Retained Activity in syringe part ([4]; Barrel): 6.9% and 5.5% and 7.0%
- Retained Activity in syringe part ([4]; Plunger (butyl rubber tip)): 30.9% and 27.7% and 21.8%
- first pass extraction fraction (myocardial blood flow [5]): 0.94
- concentration (dose) inducing transit clinical signs (rapid and labored breathing, decreased activity, hunched posture, urination) (normal rats and dogs): ≥ 0.2 mg/kg
- dose at which these clinical signs were not observed (normal rats and dogs): ≤ 0.1 mg/kg
- first pass extraction fraction (myocardial blood flow [6]): 0.94

From patent US10842892B2, “Methods and apparatus for synthesizing imaging agents, and intermediates thereof” (Lantheus Medical Imaging, Inc., priority 2010, dated 2020)
